Consider 25 molecules from publication PMC12060211, “Development of Efficient Covalent Inactivators of a Fungal Aspartate Semialdehyde Dehydrogenase” (Drug Development Research, 2025).

The test addresses T1, CalASADH (C. albicans ASADH, aspartate semialdehyde dehydrogenase) (Candida albicans, UniProt Q5ALM0).
T1 construct: gene HOM2; catalytic Cys-156; PDB 3hsk used as docking model of the same protein; ATCC 10231 is only the growth-test strain
T1 sequence (Q5ALM0 1-365): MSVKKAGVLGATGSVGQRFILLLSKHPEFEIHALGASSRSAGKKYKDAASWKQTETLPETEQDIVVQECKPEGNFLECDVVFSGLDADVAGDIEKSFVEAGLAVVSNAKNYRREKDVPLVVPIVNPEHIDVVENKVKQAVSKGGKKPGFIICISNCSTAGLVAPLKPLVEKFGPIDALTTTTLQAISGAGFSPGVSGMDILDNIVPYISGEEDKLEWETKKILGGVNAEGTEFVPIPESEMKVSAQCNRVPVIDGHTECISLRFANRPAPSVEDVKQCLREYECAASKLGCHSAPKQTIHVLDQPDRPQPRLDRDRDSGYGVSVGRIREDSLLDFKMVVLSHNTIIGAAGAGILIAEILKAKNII
As to the kind of experiment: time-dependent inactivation, NADPH formation at […] nm, kobs = kinact[I]/(Ki+[I]). The format is biochemical. The conditions noted are these: covalent; irreversible inactivation; residual activity read at pH 8.6 with 0.3 mM L-aspartate-beta-semialdehyde, 20 mM phosphate, 1.5 mM NADP.
With `CS(=O)(=O)/C=C/c1ccc(O)cc1` [compound 1, vinyl sulfone, R1 methyl, R2 1,4-phenol], the KI (inactivation) amounted to 538 ± 300 µM. In turn, `CC(=O)Nc1ccc(/C=C/S(C)(=O)=O)cc1` [compound 2, vinyl sulfone, R1 methyl, R2 acetanilide] showed a KI (inactivation) of 203 ± 83 µM. In turn, `CS(=O)(=O)/C=C/c1ccc(C(N)=O)cc1` [compound 3, vinyl sulfone, R1 methyl, R2 benzamide] showed a KI (inactivation) of 531 ± 134 µM. Consider `CS(=O)(=O)/C=C/c1ccc(O)cn1` [compound 4, vinyl sulfone, R1 methyl, R2 5-hydroxy-2-pyridine], for which the KI (inactivation) was 0.61 ± 0.091 µM. The molecule `CS(=O)(=O)/C=C/c1ccc([N+](=O)[O-])s1` [compound 5, vinyl sulfone, R1 methyl, R2 5-nitrothiophene] returned a KI (inactivation) of 2.1 ± 0.6 µM. In turn, `CS(=O)(=O)/C=C/c1ccnc2ccccc12` [compound 6, vinyl sulfone, R1 methyl, R2 4-quinoline] showed a KI (inactivation) of 4.4 ± 0.89 µM. For the molecule `CS(=O)(=O)/C=C/c1ccc2ccccc2n1` [compound 7, vinyl sulfone, R1 methyl, R2 2-quinoline], the KI (inactivation) stood at 0.96 ± 0.24 µM. In the case of `CS(=O)(=O)/C=C/c1cccc2cnccc12` [compound 8, vinyl sulfone, R1 methyl, R2 5-isoquinoline], the KI (inactivation) worked out at 0.65 ± 0.11 µM.

For `O=S(=O)(/C=C/c1cccc2cnccc12)C1CC1` [compound 9, vinyl sulfone, R1 cyclopropyl, R2 5-isoquinoline], the KI (inactivation) was found to be 2.48 ± 0.41 µM. For `O=S(=O)(/C=C/c1ccncc1)c1ccccn1` [compound 10, vinyl sulfone, R1 2-pyridinyl, R2 4-pyridinyl], the KI (inactivation) is 2.2 ± 0.18 µM. Molecule `O=S(=O)(/C=C/c1ccncc1)N1CCOCC1` [compound 11, vinyl sulfonamide, R1 2-morpholino, R2 4-pyridinyl] returned a KI (inactivation) of 1.17 ± 0.13 µM. With `CS(=O)(=O)/C=C/C(N)=O` [compound 12, sulfonyl acrylamide, R1 methyl, R2 amide], the KI (inactivation) was found to be 2.7 ± 0.62 µM. In turn, `NC(=O)/C=C/S(=O)(=O)c1ccccc1` [compound 13, sulfonyl acrylamide, R1 phenyl, R2 amide] displayed a KI (inactivation) of 2.3 ± 0.32 µM. The value for `CS(=O)(=O)/C=C/C[C@H](N)C(=O)O` [compound 14, vinyl sulfone, R1 methyl, R2 alanyl] was 7.6 ± 1.2 µM; that for `CN(C)S(=O)(=O)/C=C/C[C@H](N)C(=O)O` [compound 15, vinyl sulfonamide, R1 dimethylamino, R2 alanyl] was 27.9 ± 4.3 µM; that for `N[C@@H](C/C=C/S(=O)(=O)Cc1ccccc1)C(=O)O` [compound 16, vinyl sulfone, R1 benzyl, R2 alanyl] was 1.8 ± 0.82 µM. Next, `CC(C)S(=O)(=O)/C=C/C[C@H](N)C(=O)O` [compound 17, vinyl sulfone, R1 isopropyl, R2 alanyl]: 0.76 ± 0.15 µM.

`N[C@@H](C/C=C/S(=O)(=O)C1CC1)C(=O)O` [compound 18, vinyl sulfone, R1 cyclopropyl, R2 alanyl] gave a KI (inactivation) of 0.39 ± 0.093 µM. As for `CC(=O)CS(C)(=O)=O` [compound 19, sulfonyl ketone, R1 methyl, R2 methyl], the KI (inactivation) was 31.7 ± 4.9 µM. In turn, `CS(=O)(=O)CC(=O)c1ccncc1` [compound 20, sulfonyl ketone, R1 methyl, R2 4-pyridinyl] had a KI (inactivation) of 59 ± 22 µM. With `CS(=O)(=O)CC(=O)c1cccnc1` [compound 21, sulfonyl ketone, R1 methyl, R2 3-pyridinyl], the KI (inactivation) turned out to be 25.9 ± 6.6 µM. `CS(=O)(=O)CC(=O)c1ccccn1` [compound 22, sulfonyl ketone, R1 methyl, R2 2-pyridinyl]: the KI (inactivation) was 6.08 ± 0.76 µM. The value for `CS(=O)(=O)CC(=O)c1ccccc1` [compound 23, sulfonyl ketone, R1 methyl, R2 phenyl] was 2.2 ± 0.77 µM; that for `O=C(/C=C/c1ccncc1)N1CCOCC1` [compound 24, acrylamide, R1 morpholino, R2 4-pyridinyl] was 4.41 ± 0.85 µM. In the case of `NC(=O)/C=C/c1ccncc1` [compound 25, acrylamide, R1 amino, R2 4-pyridinyl], the KI (inactivation) came to 3.79 ± 1.6 µM.
